The text below walks through data of patent US9884116B2, “FGF modulation of in vivo antibody production and humoral immunity” (priority 2010, dated 2018).

This assay relates to splenic B cells. Briefly: Proliferation of B cells in vitro (anti-CD40 and anti-IgM stimulated). It counts as cell-based, mouse. On the procedure:
Adult wild type mice (C57B16) were sacrificed and spleens were rapidly removed. After dissociation into single cell suspension and red blood cell lysis with NH4Cl, splenocytes were isolated by centrifugation over a Ficoll gradient. Subsequently, B lymphocytes were purified by one of two methods, complement mediated lysis or CD43 negative selection. For complement lysis, cells were incubated with anti-Thy 1 antibody (J1J), anti-L3T4 (GK 1.5), anti-Ly2 (TIB105, ATCC) and rabbit complement (Sigma) for two hours at 37°. CD43 negative selection was carried out using anti-CD43 (Serotec) and Miltenyi microbeads according to the manufacturer's instructions. Cells were cultured in RPMI 1640, 10% fetal calf serum for three days in the presence of anti-CD40 (mAb 1C10, generous gift of Hsiou-Chi Liou, Weill Medical College of Cornell University) and anti-IgM Fab′2 fragments (Jackson Immunoresearch). FGF1 (100 ng/ml) and Heparin (10 ug/ml) were added, and the number of cells was determined in triplicate compared to Heparin alone using a Coulter Counter (Coulter) or trypan blue exclusion with the same results. […]
FGF signaling inhibits splenic B cell proliferation. […] The values represent the percent decrease in total cell number observed with addition of 100 ng/ml FGF1 (determined in triplicate) as compared to heparin (10 ug/ml) alone. x=mean+/− s.e.m. […]

As for “FGF1: fibroblast growth factor ligand added exogenously to B cells; stimulates the widest range of FGF receptors”, the “% Decrease in total cell number, mean +/- s.e.m.” value (mean of 6 experiments, 100 ng/ml FGF1 plus heparin vs heparin alone, 3 days, one sample t test p<0.01) is recorded as 19.7 +/− 2.8%. For the same substance, under “purified spleen B cells with CD40 and BCR signaling activated, incubated in the presence of FGF-1”, the B cell number entry was “inhibited”.
